Values of other authors, collected in patent publication US8202545B2, “Nutraceutical for the prevention and treatment of cancers and diseases affecting the liver” (Canthao Corporation, priority 2003, dated 2012).

Tests used:
[1] = tested on: liver cancer
[2] = tested on: chronic hepatitis; settings: chronic hepatitis patients
[3] = tested on: recurrent and second primary hepatomas; settings: treated group vs placebo 49%, P=0.04
[4] = tested on: human hepatoma cell
[5] = latest phase III clinical trial

## COc1cccc2c1C(=O)c1c(O)c3c(c(O)c1C2=O)C[C@@](O)(C(=O)CO)C[C@@H]3O[C@H]1C[C@H](N)[C@H](O)[C@H](C)O1 [Doxorubicin]
[1]; [5]
  median survival of patients treated: 7 months
  response rate: 11%
[1]; liver cancer patients
  patients in whom agent is effective: less than 20%
[1]; liver cancer patients (Leung and Johnson 2001)
  median survival: less than 6 months

## interferon
[2]
  overall response rate (normalization of liver enzyme levels and reduction of viral load): roughly 50%

## CC(C)=CCC/C(C)=C/CC/C(C)=C/C=C/C(C)=C/C(=O)O [acyclic retinoid, polyprenoic acid]
[3]
  incidence of recurrent or new hepatoma: 27%

## O=C1O[C@H]([C@@H](O)CO)C(O)=C1O [ascorbic acid]
[4]; decreased from 302
  AFP level in cells: 90
[4]; human hepatoma cells
  cellular growth inhibition as compared to controls: approximately 60%
